Reference: US20060051295A1, “Estrogen receptor interaction with a transcription factor” (priority 2002, published 2006)

Tests used:
IL-6 production = test: IL-6 secretion by U-2OS cells stably expressing ERα (sandwich ELISA); type: cell-based, human; details: U-2OS-ERα, IL-1β 125 pg/ml + IFNγ 10 ng/ml
Excerpt: Estrogens maintain the balance between bone resorption and formation by inhibiting the production of cytokines by osteoblasts that stimulate osteoclast activity and thus bone resorption. We analysed the relevance of ER NF-κB transrepression on IL-6 production in more depth. When the pre-osteoblast cell line U-2 OS was stimulated with cytokines such as IL-1β, production of endogenous IL-6 protein is increased. However, when U-2OS cells are also exposed to IL-1β and estrogens, the increased production of IL-6 is repressed [Table 8].
Numbers are luminescence in counts per sec reflecting IL-6 produced by the cells
Secretion of endogenously produced IL-6 was measured by sandwich ELISA as outlined in Material and Methods.
For studying repression of human IL-6 secreted by U-2 OS cells that stably overexpress ERα (U-2 OS-ERα cells) a standard sandwich ELISA was used (ELISA kit of R&D systems #DY206). Cells were plated in 24 or 96 wells plates in M505+dextran-coated charcoal stripped serum (i.e. 10% BCTS) and allowed to grow to 90% confluency.
ELISA was performed according to the protocol of the manufacturer and as briefly described below. After overnight incubation of the cells with compounds in the appropriate concentration, the supernatants were transferred to 96 wells plates that had been coated overnight with anti-IL-6 capture antibody. Captured IL-6 was subsequently detected using a biotinylated anti-IL-6 detection antibody and Streptavidin-AP. Il-6 concentrations per well were subsequently quantified using the chemoluminescent substrate CSPD (Elisa-Light™, #EL100CY, Tropix), after which luminescence was determined in a Victor multilabel counter (Wallac).

cRel + ER alpha = test: Transrepression of c-Rel induced reporters, U-2 OS co-transfected with ERα; type: cell-based, human
Protocol: Next was determined whether transrepression by ER is limited to particular NF-κB types, such as c-Rel or RelA, by overexpression of these NF-κB proteins in U-2 OS cells (Table 2). Again, the promoter-reporter constructs for the E-selectin, ICAM and VCAM genes were used in these experiments. Significant activation of these reporters by overexpression of c-Rel was observed. This activation was strongly and reproducibly transrepressed by both ERα and ERβ (Table 2).
Table 2. Estrogen-dependent transrepression of the promoters from E-selectin, VCAM and ICAM and a synthetic NF-κB responsive reporter, measured as the amount of luciferase activity. Transient (co-)transfections of ERα (or ERβ) and reporter were performed in U-2 OS cells. Reporter activity was induced by cellular exposure to Il-1β or by co-transfection of the NF-κB genes c-Rel or RelA. […] For detailed information on the composition of the reporters used, see appendix 1. The hyphen (-) in the table indicates the test with cells without transfected cDNA and no additives in medium; n.d. means: not determined.
(§1) For transient transfections, cells were seeded in 6-well plates (2.10^5 cells/well). After two or three days the cells were transfected with reporter, expression vectors and β-galactosidase control vector. Two different experimental settings were used. For testing transrepression of IL-1β induced promoter activity, cells were transfected with 1 μg reporter construct, 1 μg expression vector (containing either ERα, ERβ or GR), and 0.25 μg of β-galactosidase control plasmid. For testing transrepression in combination with c-Rel or ReLA overexpression, cells were transfected with 1 μg reporter construct, 1 μg expression vector (containing either ERα, ERβ or GR) and 0.1 or 1.0 μg expression vector containing c-Rel or RelA and 0.25 μg of β-galactosidase control vector. Equivalent amounts of DNA were obtained by adding the appropriate expression vector that lacks an insert. Transient transfection was performed using lipofectin reagent (Life Technologies). […] The transfected cells were incubated overnight with test compounds prior to cell lysis. Measurement of luciferase and P-galactosidase activity were performed using respectively the luciferase assay system (Promega) and Galacto-light plus (Tropix) according to the manufacturers' protocols and measured on the Victor 1420 multilabel counter, Wallac. Detection of β-galactosidase activity was used as a control for transfection efficiency.

IL-6 promoter = IL-6 promoter reporter in U-2 OS with ERα and NF-κB proteins / c/EBPβ; type: cell-based, human
Protocol: To determine the role of functional ERα/c-Rel interactions in repression of IL-6 production by estrogens, we analysed the effect of various combinations of ERα and NF-κB proteins on IL-6 production using a reporter construct containing the promoter of the IL-6 gene.
as §1, with “Wallac.” for “Wallac. Detection of β-galactosidase activity was used as a control for transfection efficiency.”

VCAM gene expression = test: Rabbit atherogenic diet model, VCAM mRNA in aorta bow (RNase protection)
[1] = system: E-selectin (ELAM) gene expression; test: Rabbit atherogenic diet model, E-selectin mRNA in aorta bow (RNase protection)
[2] = diet 2 weeks, 4 hours after 3 μg/kg s.c.
[3] = diet 2 weeks, 12 hours after 3 μg/kg s.c.
[4] = diet 4 weeks, 12 hours after 3 μg/kg s.c.
[5] = diet 8 weeks, 4 hours after 3 μg/kg s.c.
[6] = diet 18 weeks, 4 hours after 3 μg/kg s.c.
[7] = diet 18 weeks, 12 hours after 3 μg/kg s.c.

SMILES: C[C@]12CC[C@@H]3c4ccc(O)cc4CC[C@H]3[C@@H]1CC[C@@H]2O [Org E2, 17β-estradiol]
- Il-6 production (luminescence) (IL-6 production; E2 0.001 nM): 136039 counts per sec
- Il-6 production (luminescence) (IL-6 production; E2 0.01 nM): 79230 counts per sec
- Il-6 production (luminescence) (IL-6 production; E2 0.1 nM): 50375 counts per sec
- Il-6 production (luminescence) (IL-6 production; E2 1 nM): 41070 counts per sec
- luciferase activity, 3*NFkB-reporter (cRel + ER alpha): 5140
- luciferase activity, ELAM+ reporter (cRel + ER alpha): 3256
- luciferase activity, ELAM− reporter (cRel + ER alpha): 569
- luciferase activity, ICAM reporter (cRel + ER alpha): 3514
- luciferase activity, VCAM reporter (cRel + ER alpha): 259
- luciferase activity, IL-6 promoter reporter (IL-6 promoter; ERα + C/EBPβ): 2585
- luciferase activity, IL-6 promoter reporter (IL-6 promoter; ERα + RelA): 19401
- luciferase activity, IL-6 promoter reporter (IL-6 promoter; ERα + RelA + c/EBPβ): 92837
- luciferase activity, IL-6 promoter reporter (IL-6 promoter; ERα + RelA + p50): 8232
- luciferase activity, IL-6 promoter reporter (IL-6 promoter; ERα + c/EBPβ + p50): 1724
- luciferase activity, IL-6 promoter reporter (IL-6 promoter; ERα + cRel): 1807
- luciferase activity, IL-6 promoter reporter (IL-6 promoter; ERα + cRel + RelA): 23381
- luciferase activity, IL-6 promoter reporter (IL-6 promoter; ERα + cRel + c/EBPβ): 6459
- luciferase activity, IL-6 promoter reporter (IL-6 promoter; ERα + cRel + p50): 1814
- luciferase activity, IL-6 promoter reporter (IL-6 promoter; ERα + p50): 1447
- luciferase activity, IL-6 promoter reporter (IL-6 promoter; ERα, no NF-κB protein): 1310
- VCAM mRNA level (RNase protection, divided by GAPDH signal) (VCAM gene expression; [2]): 0.004949
- VCAM mRNA level (RNase protection, divided by GAPDH signal) (VCAM gene expression; [3]): 0.01033
- VCAM mRNA level (RNase protection, divided by GAPDH signal) (VCAM gene expression; diet 4 weeks, 4 hours after 3 μg/kg s.c.): 0.005097
- VCAM mRNA level (RNase protection, divided by GAPDH signal) (VCAM gene expression; [4]): 0.006225
- VCAM mRNA level (RNase protection, divided by GAPDH signal) (VCAM gene expression; [5]): 0.007292
- VCAM mRNA level (RNase protection, divided by GAPDH signal) (VCAM gene expression; diet 8 weeks, 12 hours after 3 μg/kg s.c.): 0.009832
- VCAM mRNA level (RNase protection, divided by GAPDH signal) (VCAM gene expression; [6]): 0.0345
- VCAM mRNA level (RNase protection, divided by GAPDH signal) (VCAM gene expression; [7]): 0.02017
- ELAM mRNA level (RNase protection, divided by GAPDH signal) [1, 2]: 0
- ELAM mRNA level (RNase protection, divided by GAPDH signal) [1, 3]: 0.0003897
- ELAM mRNA level (RNase protection, divided by GAPDH signal) [1, 4]: 0
- ELAM mRNA level (RNase protection, divided by GAPDH signal) [1, 5]: 0.0006813
- ELAM mRNA level (RNase protection, divided by GAPDH signal) [1, 6]: 0.002788
- ELAM mRNA level (RNase protection, divided by GAPDH signal) [1, 7]: 0.0008307
